Assay results taken from PubChem BioAssay (NCI).
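Interpolation was linear, between the two tested concentrations surrounding the appropriate level; five concentrations were tested over 48 hours in 96-well plates. The concentration for full growth arrest is given as TGI.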

Experiments:
Experiment in all cases: inhibition of tumour cell growth, NCI panel, 48 h
786-0 renal = system: 786-0 renal
A549 NSCLC = system: A549 NSCLC
BT-549 breast = system: BT-549 breast
CAKI-1 renal = system: CAKI-1 renal
COLO 205 colon = system: COLO 205 colon
HCT-116 colon = system: HCT-116 colon
KM12 colon = system: KM12 colon
LOX IMVI melanoma = system: LOX IMVI melanoma
MALME-3M melanoma = system: MALME-3M melanoma
MDA-MB-231 breast = system: MDA-MB-231 breast
NCI-H23 lung = system: NCI-H23 lung
PC-3 prostate = system: PC-3 prostate
SK-MEL-2 melanoma = system: SK-MEL-2 melanoma
SR leukemia = system: SR leukemia
TK-10 renal = system: TK-10 renal
UACC-257 melanoma = system: UACC-257 melanoma
HCC-2998 colon = system: HCC-2998 colon
NCI-H460 lung = system: NCI-H460 lung
RXF 393 renal = system: RXF 393 renal
SNB-75 CNS = system: SNB-75 CNS

CN1CC[C@]23c4c5ccc(O)c4O[C@H]2C(O)CC[C@@]3(O)[C@H]1C5 (stereo not given in full)
TGI (786-0 renal): > 100 µM | TGI (A549 NSCLC): > 100 µM | TGI (BT-549 breast): > 100 µM | TGI (CAKI-1 renal): > 100 µM | TGI (COLO 205 colon): > 100 µM | TGI (HCT-116 colon): > 100 µM | TGI (KM12 colon): > 100 µM | TGI (LOX IMVI melanoma): > 100 µM | TGI (MALME-3M melanoma): > 100 µM | TGI (MDA-MB-231 breast): > 100 µM | TGI (NCI-H23 lung): > 100 µM | TGI (PC-3 prostate): > 100 µM | TGI (SK-MEL-2 melanoma): > 100 µM | TGI (SR leukemia): > 100 µM | TGI (TK-10 renal): > 100 µM | TGI (UACC-257 melanoma): > 100 µM

CC(=O)OCCCC(NC(=O)OC(C)(C)C)C(=O)NC(CCCOC(C)=O)C(=O)NC(Cc1ccc([N+](=O)[O-])cc1)C(=O)NCC(=O)OCc1ccccc1 (stereo not given)
TGI (786-0 renal): 31.9 µM | TGI (A549 NSCLC): 38.8 µM | TGI (BT-549 breast): 32.6 µM | TGI (CAKI-1 renal): 34.5 µM | TGI (COLO 205 colon): 31.4 µM | TGI (HCC-2998 colon): 33.4 µM | TGI (HCT-116 colon): 32.4 µM | TGI (KM12 colon): 29 µM | TGI (LOX IMVI melanoma): 25.9 µM | TGI (MALME-3M melanoma): 34.4 µM | TGI (MDA-MB-231 breast): 27.3 µM | TGI (NCI-H23 lung): 27.3 µM | TGI (NCI-H460 lung): 29.5 µM | TGI (PC-3 prostate): 30.9 µM | TGI (RXF 393 renal): 31.1 µM | TGI (SK-MEL-2 melanoma): 29.1 µM | TGI (SR leukemia): 44.6 µM | TGI (TK-10 renal): 43.3 µM | TGI (UACC-257 melanoma): 28.6 µM

O=C(O)c1cc(CC2Cc3cc4c(cc3C2=O)CCC4)cc2c1CCC2 (stereo not given)
TGI (786-0 renal): > 100 µM | TGI (A549 NSCLC): > 100 µM | TGI (BT-549 breast): > 100 µM | TGI (CAKI-1 renal): > 100 µM | TGI (COLO 205 colon): > 100 µM | TGI (HCC-2998 colon): > 100 µM | TGI (HCT-116 colon): > 100 µM | TGI (KM12 colon): > 100 µM | TGI (LOX IMVI melanoma): > 100 µM | TGI (MALME-3M melanoma): > 100 µM | TGI (MDA-MB-231 breast): > 100 µM | TGI (NCI-H23 lung): > 100 µM | TGI (NCI-H460 lung): > 100 µM | TGI (PC-3 prostate): > 100 µM | TGI (SK-MEL-2 melanoma): > 100 µM | TGI (SNB-75 CNS): > 100 µM | TGI (SR leukemia): > 100 µM | TGI (TK-10 renal): > 100 µM | TGI (UACC-257 melanoma): > 100 µM

COc1ccc(OC)c(-c2nc3n(c2/C=C2/C(=O)Nc4ccccc42)CCS3)c1
TGI (786-0 renal): > 100 µM | TGI (A549 NSCLC): > 100 µM | TGI (BT-549 breast): > 100 µM | TGI (CAKI-1 renal): > 100 µM | TGI (COLO 205 colon): > 100 µM | TGI (HCT-116 colon): > 100 µM | TGI (KM12 colon): > 100 µM | TGI (LOX IMVI melanoma): > 100 µM | TGI (MALME-3M melanoma): > 100 µM | TGI (MDA-MB-231 breast): 92.3 µM | TGI (NCI-H23 lung): > 100 µM | TGI (NCI-H460 lung): > 100 µM | TGI (PC-3 prostate): > 100 µM | TGI (RXF 393 renal): 81.3 µM | TGI (SK-MEL-2 melanoma): 79 µM | TGI (SNB-75 CNS): 83 µM | TGI (SR leukemia): 94.4 µM | TGI (TK-10 renal): > 100 µM | TGI (UACC-257 melanoma): > 100 µM

Cc1ccc2nc3c(=O)[nH]c(=O)nc-3n(C)c2c1C
TGI (786-0 renal): > 100 µM | TGI (A549 NSCLC): > 100 µM | TGI (BT-549 breast): > 100 µM | TGI (CAKI-1 renal): > 100 µM | TGI (COLO 205 colon): > 100 µM | TGI (HCC-2998 colon): > 100 µM | TGI (HCT-116 colon): > 100 µM | TGI (KM12 colon): > 100 µM | TGI (LOX IMVI melanoma): > 100 µM | TGI (MALME-3M melanoma): > 100 µM | TGI (MDA-MB-231 breast): > 100 µM | TGI (NCI-H23 lung): > 100 µM | TGI (NCI-H460 lung): > 100 µM | TGI (PC-3 prostate): > 100 µM | TGI (RXF 393 renal): > 100 µM | TGI (SK-MEL-2 melanoma): > 100 µM | TGI (SNB-75 CNS): > 100 µM | TGI (TK-10 renal): > 100 µM | TGI (UACC-257 melanoma): > 100 µM

COc1cc(C(=O)/C=C/c2ccc(OCC#N)cc2)cc(OC)c1OC
TGI (786-0 renal): 37.9 µM | TGI (A549 NSCLC): 50.9 µM | TGI (BT-549 breast): 32 µM | TGI (CAKI-1 renal): 69.6 µM | TGI (COLO 205 colon): 39.5 µM | TGI (HCC-2998 colon): 30.6 µM | TGI (HCT-116 colon): 26.9 µM | TGI (KM12 colon): 32 µM | TGI (MALME-3M melanoma): 33 µM | TGI (NCI-H23 lung): 43.2 µM | TGI (NCI-H460 lung): 80.9 µM | TGI (PC-3 prostate): 38 µM | TGI (RXF 393 renal): 34.1 µM | TGI (SR leukemia): 55.4 µM | TGI (TK-10 renal): 70.1 µM | TGI (UACC-257 melanoma): > 100 µM

Cc1ccc2nc(Cl)c(/C=N/N3C(=O)/C(=C/c4cccc([N+](=O)[O-])c4)N=C3c3ccccc3)cc2c1
TGI (786-0 renal): > 100 µM | TGI (A549 NSCLC): > 100 µM | TGI (BT-549 breast): > 100 µM | TGI (CAKI-1 renal): > 100 µM | TGI (COLO 205 colon): > 100 µM | TGI (HCC-2998 colon): > 100 µM | TGI (HCT-116 colon): > 100 µM | TGI (KM12 colon): > 100 µM | TGI (LOX IMVI melanoma): > 100 µM | TGI (MDA-MB-231 breast): > 100 µM | TGI (NCI-H460 lung): > 100 µM | TGI (PC-3 prostate): 76.9 µM | TGI (SK-MEL-2 melanoma): 61.7 µM | TGI (SNB-75 CNS): > 100 µM | TGI (SR leukemia): 59.6 µM | TGI (TK-10 renal): > 100 µM | TGI (UACC-257 melanoma): > 100 µM
